Measured values from PubChem BioAssay (NCI).
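Values below derive from 48-hour exposures of cells grown in 96-well plates, with endpoints linearly interpolated between the two concentrations bracketing the appropriate inhibition level. At the TGI there is no net growth.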 Where a SMILES comes first, the peptide text is derived from it. [ ]: non-standard residue; d: D form. The star is where a group is joined. ξ: configuration not given here. ξF = NC(Cc1ccccc1)C(=O)O; Cbz = O=C(OCc1ccccc1)*; Aib = CC(C)(N)C(=O)O; NHNH2 = NN*

Legend:
Assay in all cases: inhibition of tumour cell growth, NCI panel, 48 h
[1] = tested on: RXF 393 renal
[2] = tested on: K-562 leukemia
[3] = tested on: OVCAR-5 ovarian
[4] = tested on: A549 NSCLC
[5] = tested on: ACHN renal
[6] = tested on: MOLT-4 leukemia
[7] = tested on: HOP-92 NSCLC
[8] = tested on: EKVX NSCLC
[9] = tested on: SK-MEL-28 melanoma
[10] = tested on: KM12 colon
[11] = tested on: SF-539 CNS
[12] = tested on: 786-0 renal
[13] = tested on: HCT-15 colon
[14] = tested on: MDA-MB-231 breast
[15] = tested on: HL-60(TB) leukemia
[16] = tested on: MALME-3M melanoma

Row | Structure (SMILES) | TGI [1] | TGI [2] | TGI [3] | TGI [4] | TGI [5] | TGI [6] | TGI [7] | TGI [8] | TGI [9] | TGI [10] | TGI [11] | TGI [12] | TGI [13] | TGI [14] | TGI [15] | TGI [16]
1 | CCc1n[nH]c(=O)n1/N=C/c1ccccc1O | > 100 µM | > 100 µM | > 100 µM | > 100 µM | > 100 µM | > 100 µM | > 100 µM | > 100 µM | > 100 µM | > 100 µM | > 100 µM | > 100 µM | > 100 µM | > 100 µM | – | –
2 | COP(=O)(OC)C(=O)N1N(c2ccc([N+](=O)[O-])cc2)C(=O)C(C)NC1(NNc1ccc([N+](=O)[O-])cc1)P(=O)(OC)OC (configuration not stated) | – | > 100 µM | > 100 µM | > 100 µM | > 100 µM | > 100 µM | > 100 µM | > 100 µM | > 100 µM | > 100 µM | > 100 µM | > 100 µM | > 100 µM | – | > 100 µM | > 100 µM
3 | CC(=O)O[C@H]1C(=O)[C@@]2(C)[C@H]([C@H](OC(=O)c3cccc([N+](=O)[O-])c3)[C@]3(O)C[C@H](OC(=O)[C@H](O)[C@@H](NC(=O)c4ccccc4)c4ccccc4)C(C)=C1C3(C)C)[C@]1(OC(C)=O)CO[C@@H]1C[C@@H]2O | – | – | 16.4 µM | > 25 µM | > 25 µM | > 20.3 µM | > 25 µM | > 25 µM | > 25 µM | > 25 µM | 0.00254 µM | > 25 µM | > 25 µM | > 25 µM | < 0.0025 µM | –
4 | N#Cc1cccc2c1Nc1ccccc1S2 | > 100 µM | > 100 µM | > 100 µM | > 100 µM | > 100 µM | > 100 µM | 92.3 µM | > 100 µM | > 100 µM | > 100 µM | > 100 µM | > 100 µM | > 100 µM | – | > 100 µM | > 100 µM
5 | CC1(C)O[C@@H]([C@H](O)CO)[C@H](O)[C@@H](C2SCCCS2)O1 | > 100 µM | – | > 100 µM | > 100 µM | > 100 µM | – | > 100 µM | > 100 µM | > 100 µM | > 100 µM | > 100 µM | > 100 µM | > 100 µM | > 100 µM | – | –
6 | N#Cc1nc(CCN2C(=O)c3ccccc3C2=O)oc1N | > 100 µM | > 100 µM | > 100 µM | > 100 µM | > 100 µM | > 100 µM | – | > 100 µM | > 100 µM | > 100 µM | > 100 µM | > 100 µM | > 100 µM | > 100 µM | – | > 100 µM
7 | CC(C)(NC(=O)OCc1ccccc1)C(=O)NC(Cc1ccccc1)C(=O)NN (configuration not stated) (Cbz-[Aib]-[ξF]-NHNH2) | > 100 µM | > 100 µM | > 100 µM | > 100 µM | > 100 µM | > 100 µM | > 100 µM | > 100 µM | > 100 µM | > 100 µM | > 100 µM | > 100 µM | > 100 µM | > 100 µM | – | > 100 µM
8 | CC[C@H](C)[C@H]1NC(=O)[C@@H](NC(=O)[C@@H](CC(C)C)N(C)C(=O)C2CCCN2C(=O)[C@H](C)O)[C@@H](C)OC(=O)[C@H](Cc2ccc(OC)cc2)N(C)C(=O)[C@@H]2CCCN2C(=O)[C@H](CCCCNC(=O)OCc2ccccc2)NC(=O)[C@H](C)C(=O)[C@H](C(C)C)OC(=O)C[C@@H]1O (some centres not stated) | > 25 µM | > 25 µM | > 25 µM | > 25 µM | > 25 µM | > 25 µM | > 25 µM | > 25 µM | > 25 µM | 19.4 µM | > 25 µM | > 25 µM | > 25 µM | – | > 25 µM | 20.1 µM
9 | COC(=O)C(N)CCCC(N)C(=O)NC(C)C(=O)NC(CCC(=O)NCCNCCNc1c2ccccc2nc2cccc([N+](=O)[O-])c12)C(N)=O (configuration not stated) | 28.5 µM | 20.7 µM | > 100 µM | > 43.6 µM | > 61.1 µM | > 100 µM | 23.8 µM | 32.9 µM | 31.1 µM | 67.2 µM | 14.2 µM | > 31 µM | 48.6 µM | 53.1 µM | – | 24.8 µM
10 | CC(C)(O)/C=C\P(=O)(O)O | > 100 µM | > 100 µM | > 100 µM | > 100 µM | > 100 µM | – | > 100 µM | > 100 µM | > 100 µM | > 100 µM | > 100 µM | > 100 µM | > 100 µM | – | – | > 100 µM
11 | Cc1ccn2c(=O)cc(CN3CCOCC3)nc2c1 | – | > 100 µM | > 100 µM | > 100 µM | > 100 µM | > 100 µM | > 100 µM | > 100 µM | > 100 µM | > 100 µM | > 100 µM | > 100 µM | > 100 µM | > 100 µM | > 100 µM | > 100 µM
12 | CCOC(=O)c1c[nH]c2c(Sc3ccccc3)nccc2c1=O | – | – | > 100 µM | > 100 µM | > 100 µM | > 100 µM | > 100 µM | > 100 µM | > 100 µM | > 100 µM | > 100 µM | > 100 µM | > 100 µM | > 100 µM | 83.2 µM | –
13 | S=c1[nH]nc(CNc2ccc(-c3n[nH]c(=S)n3-c3ccc(Cl)cc3)cc2)n1-c1ccc(Cl)cc1 | > 100 µM | > 100 µM | 46.4 µM | > 100 µM | > 100 µM | > 100 µM | 59.1 µM | > 100 µM | 64.2 µM | 44 µM | – | 70 µM | > 100 µM | > 100 µM | – | 59.9 µM
14 | COc1c(CC=C(C)C)c(O)c(C(CC(C)C)c2c(O)c3c(c(C(C)=O)c2O)OC(C(C)(C)O)C3)c(O)c1C(C)=O (configuration not stated) | 10.9 µM | 9.11 µM | > 12.5 µM | > 12.5 µM | > 12.5 µM | 5.9 µM | 6.43 µM | > 12.5 µM | > 12.5 µM | > 12.5 µM | > 12.5 µM | > 12.5 µM | > 12.5 µM | – | 7.55 µM | > 12.5 µM
15 | Cc1nc(N)c(N2CCN(C(=O)O)CC2)c(=O)[nH]1 | – | > 100 µM | > 100 µM | > 100 µM | > 100 µM | > 100 µM | > 100 µM | > 100 µM | > 100 µM | > 100 µM | > 100 µM | > 100 µM | > 100 µM | > 100 µM | > 100 µM | > 100 µM
